Each structure is given as a SMILES string. Entries after “also recorded” stand apart in the source; their conditions may differ.

Here are results for one compound from US4080471A, “Use of substituted isopropylaminopropanols for inducing inotropic effects of the human heart” (priority 1976, dated 1978).

For the data set, the system named is heart. The data set can be described thus: Ventricular arrhythmia in dogs after two-stage ligation of the left anterior coronary artery (third day post infarction). Format: in vivo, dog. The method, then: Harris, A. S. Delayed Development of Ventricular Ectopic Rhythms following Coronary Occlusion, Cir. l, p 1318, (1950) described a method of two-stage ligation of the left anterior coronary artery in the dog. This method produces a multifocal ventricular arrhythmia that generally remains persistent on the first post ligation day (day 1-24 hours post infarct). The arrhythmia slowly disappears, and by the third post-ligation day the animal has essentially a normal sinus rhythm.
Maling, H. M. and Moran, N. C., Ventricular Arrhythmias Induced by Sympathominetic Amines in Unanesthetized Dogs Following Coronary Artery Occlussion, Cir.
METHODS, MATERIALS AND EXPERIMENTAL DESIGN
Seventeen adult female beagle dogs were used. Their ages ranged from one to three years. These animals were divided into two groups.
The first group consisted of 12 dogs and served as a control group. All animals were subjected to a two-stage ligation of the left anterior coronary artery. On the first post operative day these twelve animals were given various experimental antiarrhythmic agents as part of a routine testing procedure. It should be noted that, due to the nature of these agents, there would be no test drug or only trace amounts of test drug in the blood on day 3, and these amounts would cause little or no change on the outcome of a third day test. It should also be noted that all twelve of these animals has at least 85% ventricular ectopic beats on the morning after surgery in order to be accepted for testing.
On the third day post infarction the dogs were suspended in a standing position in a canvas sling. No anesthesia or sedation was used. ECGs were recorded as well as blood pressure. After a control period, an infusion of 20 μg/kg min. of 1-norepinephrine was begun using a Harvard infusion/withdrawal pump. This infusion lasted 120 minutes.
These five animals were all subjected to a two stage ligation of the anterior descending coronary artery. On day 1 and day 2 each dog was suspended in a canvas sling in the standing position and ECG, blood pressure, and other physiologic measurements were taken. […]

Take `CC(C)NCC(O)COc1ccc(O)cc1` (centres unmarked) [Compound I, 1-isopropylamino-3-(p-hydroxyphenoxy)-propanol-2]: the “ectopic activity in postdrug observation period” value (60 minutes after compound I infusion) is given as “essentially no ectopic activity”. In addition, the “arrhythmogenic effect (in words)” value (compound I 1.0 mg/kg/min i.v. for twenty minutes, day 3 post infarct) is “not arrhythmogenic; also recorded: the few ectopic beats seen during the predrug control were slightly suppressed; also recorded: lacks arrhythmogenic properties”.
